The values that follow come from the supplement of paper PMC10307832.

What all share (assay): relative viability (nuclei count vs DMSO), 5 days (fraction); higher = more cells survive
Compound in assay [1]: CCn1c(-c2nonc2N)nc2cnc(Oc3cccc(NC(=O)c4ccc(OCCN5CCOCC5)cc4)c3)cc21 + C[C@]1(O)C[C@@H](c2nc(-c3ccc4ccc(-c5ccccc5)nc4c3)c3c(N)nccn32)C1 [Linsitinib] (partner 1 µM)
The method, boiled down: (§1)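 Relative viability is defined as nuclei in treated wells over nuclei in vehicle wells. Duplicate plates were run and medians reported. Lung cancer cell lines in 1536-well plates were dosed by pin tool one day after seeding, with one drug or with a fixed anchor-drug dose plus five library-drug doses (not always all listed) in √10 steps, and nuclei were counted after 5 days.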

Compound in assay [2]: CCn1c(-c2nonc2N)nc2cnc(Oc3cccc(NC(=O)c4ccc(OCCN5CCOCC5)cc4)c3)cc21 + N=C(N)NC(=N)NCCc1ccccc1 [Phenformin] (partner 250 µM)
A digest of the protocol:
as §1

Compound in assay [3]: CCn1c(-c2nonc2N)nc2cnc(Oc3cccc(NC(=O)c4ccc(OCCN5CCOCC5)cc4)c3)cc21 + Cc1cc(Nc2cc(N3CCN(C)CC3)nc(Sc3ccc(NC(=O)C4CC4)cc3)n2)n[nH]1 [Tozasertib] (partner 0.1 µM)
A digest of the protocol:
as §1

Compound in the assay “Mirin + Vorinostat”: N=C1NC(=O)/C(=C/c2ccc(O)cc2)S1 [Mirin] + O=C(CCCCCCC(=O)Nc1ccccc1)NO [Vorinostat] (partner 1 µM)
The method, boiled down: as §1

Consider UMC-11, for which the relative viability in assay [1] (first compound 0.04 µM) turned out to be 1.14; in assay [1] (first compound 0.1265 µM), 1.07; in assay [1] (first compound 0.4 µM), 0.915; in assay [1] (first compound 1.265 µM), 0.322; in assay [1] (first compound 4 µM), 0.337; in assay [2] (first compound 0.04 µM), 0.304. In addition, the relative viability was determined as 0.25 in assay [2] (first compound 0.1265 µM); 0.198 in assay [2] (first compound 0.4 µM); 0.225 in assay [2] (first compound 1.265 µM); 0.129 in assay [2] (first compound 4 µM); 0.206 in assay [3] (first compound 0.04 µM); 0.212 in assay [3] (first compound 0.1265 µM). Moreover, the relative viability in assay [3] (first compound 0.4 µM) turned out to be 0.205; in assay [3] (first compound 1.265 µM), 0.16; in assay [3] (first compound 4 µM), 0.186; in the assay with Mirin + Vorinostat (first compound 0.25 µM) it was 0.411; with Mirin + Vorinostat (first compound 0.7906 µM), 0.362; in the assay with Mirin + Vorinostat (first compound 2.5 µM), 0.399. Further, the values for the relative viability in the assay with Mirin + Vorinostat (first compound 7.906 µM) and with Mirin + Vorinostat (first compound 25 µM) were 0.305 and 0.266, respectively.
